This is an account of results in patent publication US20060127894A1, “Protein associated with cell growth, differentiation, and death” (Incyte Corporation, priority 2001, published 2006).

The test system of experiment [1] is SEQ ID NO:45 expression in C3A cells. Kind of experiment: Microarray expression analysis of steroid-treated versus untreated C3A cells. The class given is cell-based, human. The method, then: Total RNA is isolated from tissue samples using the guanidinium thiocyanate method and poly(A)^+ RNA is purified using the oligo-(dT) cellulose method. Each poly(A)^+ RNA sample is reverse transcribed using MMLV reverse-transcriptase, 0.05 pg/μl oligo-(dT) primer (21 mer), 1×first strand buffer, 0.03 units/μL RNase inhibitor, 500 μM dATP, 500 μM dGTP, 500 μM dTTP, 40 μM dCTP, 40 μM dCTP-Cy3 (BDS) or dCTP-Cy5 (Amersham Biosciences). The reverse transcription reaction is performed in a […] containing 200 ng poly(A)^+ RNA with GEMBRIGHT kits (Incyte). Specific control poly(A)+ RNAs are synthesized by in vitro transcription from non-coding yeast genomic DNA. After incubation at 37° C. for 2 hr, each reaction sample (one with Cy3 and another with Cy5 labeling) is treated with […] of 0.5M sodium hydroxide and incubated for 20 minutes at 85° C. to the stop the reaction and degrade the RNA. Samples are purified using two successive CHROMA SPIN 30 gel filtration spin columns (CLONTECH Laboratories, Inc. (CLONTECH), Palo Alto Calif.) and after combining, both reaction samples are ethanol precipitated using 1 ml of glycogen (1 mg/ml), 60 ml sodium acetate, and 300 ml of 100% ethanol. The sample is then dried to completion using a SpeedVAC (Savant Instruments Inc., Holbrook N.Y.) and resuspended in 14 μl 5×SSC/0.2% SDS.
Sequences of the present invention are used to generate array elements. Each array element is amplified from bacterial cells containing vectors with cloned cDNA inserts. PCR amplification uses primers complementary to the vector sequences flanking the cDNA insert. Array elements are amplified in thirty cycles of PCR from an initial quantity of 1-2 ng to a final quantity greater than 5 μg. Amplified array elements are then purified using […]-400 (Amersham Biosciences).
Hybridization reactions contain 9 μl of sample mixture consisting of 0.2 μg each of Cy3 and Cy5 labeled cDNA synthesis products in 5×SSC, 0.2% SDS hybridization buffer. The sample mixture is heated to 65° C. for 5 minutes and is aliquoted onto the microarray surface and covered with an 1.8 cm^2 coverslip. The arrays are transferred to a waterproof chamber having a cavity just slightly larger than a microscope slide. The chamber is kept at 100% humidity internally by the addition of 140 μl of 5×SSC in a comer of the chamber. The chamber containing the arrays is incubated for about 6.5 hours at 60° C. The arrays are washed for 10 min at 45° C. in a first wash buffer (1×SSC, 0.1% SDS), three times for 10 minutes each at 45° C. in a second wash buffer (0.1×SSC), and dried.
Reporter-labeled hybridization complexes are detected with a microscope equipped with an Innova 70 mixed gas 10 W laser (Coherent, Inc., Santa Clara Calif.) capable of generating spectral lines at 488 nm for excitation of Cy3 and at 632 nm for excitation of CyS. The excitation laser light is focused on the array using a 20× microscope objective (Nikon, Inc., Melville N.Y.). The slide containing the array is placed on a computer-controlled X-Y stage on the microscope and raster-scanned past the objective. The 1.8 cm×1.8 cm array used in the present example is scanned with a resolution of 20 micrometers.
A grid is superimposed over the fluorescence signal image such that the signal from each spot is centered in each element of the grid. The fluorescence signal within each element is then integrated to obtain a numerical value corresponding to the average intensity of the signal. […]

For experiment [2] the following is noted: cited from earlier work.
The subject of experiment [3] is human umbilical vein endothelial cells (HUVECs). Conditions: cited from earlier work.
Experiment [4] concerns SEQ ID NO:33 expression in BT-20 cells. Kind of experiment: Microarray expression analysis of BT-20 cells treated with EGF. The class given is cell-based, human. Conditions: BT-20 breast carcinoma cells. The method, then:
Total RNA is isolated from tissue samples using the guanidinium thiocyanate method and poly(A)^+ RNA is purified using the oligo-(dT) cellulose method. Each poly(A)^+ RNA sample is reverse transcribed using MMLV reverse-transcriptase, 0.05 pg/μl oligo-(dT) primer (21 mer), 1×first strand buffer, 0.03 units/μL RNase inhibitor, 500 μM dATP, 500 μM dGTP, 500 μM dTTP, 40 μM dCTP, 40 μM dCTP-Cy3 (BDS) or dCTP-Cy5 (Amersham Biosciences). The reverse transcription reaction is performed in a […] containing 200 ng poly(A)^+ RNA with GEMBRIGHT kits (Incyte). Specific control poly(A)+ RNAs are synthesized by in vitro transcription from non-coding yeast genomic DNA. […]
Sequences of the present invention are used to generate array elements. […] Array elements are amplified in thirty cycles of PCR from an initial quantity of 1-2 ng to a final quantity greater than 5 μg. […]
Reporter-labeled hybridization complexes are detected with a microscope equipped with an Innova 70 mixed gas 10 W laser (Coherent, Inc., Santa Clara Calif.) capable of generating spectral lines at 488 nm for excitation of Cy3 and at 632 nm for excitation of CyS. […]
A grid is superimposed over the fluorescence signal image such that the signal from each spot is centered in each element of the grid. […]

Where [5] appears, read: dose 10 μM, 1 hour of treatment.
Setting [6] is: dose 10 μM, 3 hours of treatment.

Take “6α-methyl-17-hydroxyprogesterone [medroxyprogesterone]”: the “expression of SEQ ID NO:45 increased in drug-treated, as compared to untreated, C3A cells” value in experiment [1] (setting [5]) and in experiment [1] (setting [6]) was “at least two-fold” in each case. The “pharmacological activity relative to progesterone” value in experiment [2] (greater than progesterone) was “about 15 times”.
Regarding `C[C@H]1C[C@H]2[C@@H]3CCC4=CC(=O)C=C[C@]4(C)[C@@]3(Cl)[C@@H](O)C[C@]2(C)[C@@]1(O)C(=O)CO` [beclomethasone], the “expression of SEQ ID NO:45 increased in drug-treated, as compared to untreated, C3A cells” value in experiment [1] (dose 1 μM, 3 hours of treatment) is “at least two-fold”; in experiment [1] (setting [5]), “at least two-fold”; in experiment [1] (setting [6]) it was “at least two-fold”. Further, the “anti-inflammatory and vasoconstrictive effects relative to hydrocortisone” value in experiment [2] (intranasal, greater than those produced by hydrocortisone) was 5000 times.
Regarding TNF-α, in experiment [3], the “increase of cellular secretions of MCP-1 compared with untreated cells” value is given as 119 fold.
Regarding “epidermal growth factor: a potent mitogen (NSDSECPLSHDGYCLHDGVCMYIEALDKYACNCVVGYIGERCQYRDLKWWELR; Epidermal growth factor; UniProt P01133 971-1023, looked up)”, the “expression of SEQ ID NO:33 down-regulated on treatment of BT-20 cells” value in experiment [4] is on record as “at least two-fold”.
